Here are results for 2 compounds from patent US8734787B2, “Drug delivery system” (Erydel S.p.A., priority 2009, dated 2014).

For data set [1] the following is noted: 10-12 hours post-dose; cited from earlier work.
The subject of data set [2] is erythrocytes. Particulars: cited from earlier work.
The test system of data set [3] is erythrocytes. Nature of the data set: Literature: distribution of FK506 in blood and RBC binding capacity. It counts as in vitro ADME. Particulars: calculated.
In a further data set the test system is human erythrocytes. Nature of the data set: Loading of recombinant FKBP12 into human erythrocytes (cell recovery, corpuscular indices). Particulars: at the three tested concentrations (20, 40 and 80 μM). The protocol: recombinant FKBP12 was encapsulated into human erythrocytes by means of a procedure of hypotonic dialysis, isotonic resealing and “reannealing” as previously described [Magnani M 1989]. In particular, human red blood cells were obtained from fresh blood collected in heparin from healthy donors and washed with physiologic solution containing Hepes 10 mM (pH 7.4), NaCl 154 mM and Glucose 5 mM to remove leukocytes and platelets. Recovered RBC were re-suspended at 70% haematocrit in physiologic solution, the suspension aliquoted in 3 tubes and rFKBP12 added at increasing concentrations (20, 40, 80 μM/tube). Each erythrocyte suspension was dialysed in dialysis tube with 3.5 kDa cut-off for 90 minutes at 4° C. against 50 volumes of hypotonic solution 60 mOsm containing NaH2PO4 10 mM, NaHCO3 10 mM pH 7.4, glucose 20 mM, GSH 3 mM and ATP 2 mM. At the end of the dialysis step, RBC suspensions were collected and allowed to equilibrate at 37° C. for 5 minutes under gentle stirring. […] RBC corpuscolar indices MCV, Mean Corpuscular Volume, MCH, Mean Corpuscular Haemoglobin and MCHC, Mean Corpuscular Haemoglobin Concentration) were evaluated for both loaded and un-loaded cells at the end of the procedure.

The nature of data set [4]: Preliminary binding studies rFKBP12-FK506 (Dot Blot). Particulars: 2.5, 5, 10 μg/well protein. The protocol: the ability of 6His-FKBP12 to bind the FK506 ligand was assessed by a slightly modified Dot Blot analysis. Briefly, 6His-FKBP12 in native conditions was dot-blotted onto a 0.2 μm nitrocellulose membrane at increasing concentrations (2.5, 5, 10 μg/well). Successively, the membrane was subjected to a single incubation step with a solution of Tacrolimus-horseradish peroxidase conjugate (PRO-Trac™ II Tacrolimus 5× Conjugate, DiaSorin, Stillwater, Minn., USA) to allow FKBP12-Tacrolimus binding.

Turning to `C=CC[C@@H]1/C=C(\C)C[C@H](C)C[C@H](OC)[C@H]2O[C@@](O)(C(=O)C(=O)N3CCCC[C@H]3C(=O)O[C@H](/C(C)=C/[C@@H]3CC[C@@H](O)[C@H](OC)C3)[C@H](C)[C@@H](O)CC1=O)[C@H](C)C[C@@H]2OC` (relative stereo) [FK506, 3S-[3R*[E(1S*,3S*,4S*)],4S*,5R*,8S*,9E,12R*,14R*,15S*,-16R*,18S*, 19S*,26aR*]]-5,6,8,11,12,13,14,15,16,17,18,19,24,25,26,26a-hexadecahydro-5,19-dihydroxy-3-[2-(4-hydroxy-3-methoxycyclohexyl)-1-methylethenyl]-14,16-dimethoxy-4,10,12,18-tetramethyl-8-(2-propenyl)-15,19-epoxy-3H-pyrido[2,1-c][1,4]oxaazacyclotricosine-1,7,20,21(4H,23H)-tetrone mono-hydrate], in data set [1], the therapeutic window is 5-20 ng/ml whole blood. Also, in the data set on erythrocytes [2], the “binding capacity of RBC” value is recorded as “around 440 ng/ml of blood”, the “fraction in blood associated with erythrocytes” value is “about 85%”, the “fraction in blood associated with lymphocytes” value was 0.46% and the “fraction in blood associated with plasma” value is on record as 14%. The “FK506 binding capacity for native RBC” value in the data set with erythrocytes [3] is reported as 0.4 μg/ml RBC 40% Ht.
For “recombinant FKBP12: N-terminal His-tagged recombinant form of human 12-kDa FK506 Binding Protein expressed in E. coli BL21(DE3)”, the haemolytic effect result in the data set on human erythrocytes is listed as “does not appear haemolytic”. In data set [4], the “ability to bind the FK506 ligand” value was “able to bind Tacrolimus in a specific and dose-dependent manner”.
